Experimental data taken from BindingDB's records for PubMed 9223586 (Georgetown University, 1997).

Molecular target: Nicotinic acetylcholine receptor (Rattus leucopus, UniProt Q62594)
Sequence (Q62594 whole entry): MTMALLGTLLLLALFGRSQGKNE

COc1cc2c3cc1Oc1cc(ccc1O)CC1c4c(cc(OC)c(O)c4Oc4ccc(cc4)CC3[N+](C)(C)CC2)CC[N+]1(C)C (stereo unspecified) [CAS_8063-06-7]
Ki: 3.79 µM
